# Source: patent US6462055B2, “Alpha-methylbenzyl-containing thiourea inhibitors of herpes viruses containing a phenylenediamine group” (Wyeth, priority 1998, dated 2002)
# Key:
# [1] = test system: HCMV recombinant mutant virus (RV145); assay: microbe, parasite or virus in culture; assay type: cell-based, human cytomegalovirus; conditions: for IC50: Human betaherpesvirus 5, read-out: IC50 ug/ml HCMV, HCMV
# Excerpt: Microtiter plate assay. Ninety-six well plate cultures of human foreskin fibroblasts are infected in the presence of inhibitor compound with a HCMV recombinant mutant virus whose genome contains the prokaryotic beta-glucuronidase gene (Jefferson, R. A., S. M. Burgess, and D. Hirsh. 1986. Beta-glucuronidase from Escherichia coli as a gene fusion marker. Proc. Natl. Acad. Sci. USA 83:8447-8451) whose expression is controlled by a viral promoter. An example of such a virus is RV145 (Jones, T. R., V. P. Muzithras, and Y. Gluzman. 1991. Replacement mutagenesis of the human cytomegalovirus genome: US10 and US11 gene products are nonessential. J. Virol. 65:5860-5872). Since it is under the control of a viral promoter, beta-glucuronidase expression is an indirect indicator of growth and replication of HCMV in this assay. At 96 hours post-infection, the infected cell lysates are prepared (using 50 mM sodium phosphate [pH7.0]containing 0.1% Triton X-100 and 0.1% sarkosyl) and assayed for beta-glucuronidase activity using a substrate for the enzyme which when cleaved yields either a product which can be measured […] in a spectrophotometer or fluorescently in a microfluorimeter. Examples of such substrates are p-nitrophenyl-beta-D-glucuronide and methylumbelliferylglucuronide, respectively. The presence of an antiviral compound is indicated by the reduced expression of the HCMV genome resident beta-glucuronidase gene, compared to the absence of inhibitor. […] Data from this assay generated using varying amounts of inhibitor compound is also used to estimate the IC50 of an inhibitor compound.
# [2] = test system: HSV-1; assay: HSV Antiviral (ELISA) Assay in Vero cells; assay type: cell-based, herpes simplex virus type 1; conditions: HSV-1, Vero cells; for IC50: Human alphaherpesvirus 1, read-out: IC50 (ug/ml) HSV
# Protocol: Vero cells (ATCC #CCL-81) are plated on 96-well tissue culture plates at 3.5×10^4 cells per 100 μl tissue culture DMEM (Dulbeccos modified Eagle media) supplemented with 2% fetal bovine serum (FBS) in each well. After overnight incubation @ 37° C. (in 5% CO2) and 30 minutes prior to infection with HSV-1 (multiplicity of infection equal to 0.006), cells are either untreated, or treated with test compound (multiple concentrations) or reference standard drug control. After approximately 24 hours post-infection incubation @ 37° C. (in 5% CO2), cells are fixed for ELISA assay. The primary antibody is murine anti-HSV glycoprotein D monoclonal primary antibody and the secondary antibody is goat anti-mouse IgG linked to β-galactosidase. Thus the extent of viral replication is determined by assessing β-galactosidase activity by quantifying the generation of the 4-methyl umbelliferone fluorescent cleavage product after addition of the methyl umbelliferyl-β-D-galactoside (Sigma #M1633) substrate on a microfluorimeter (365 nm for excitation and 450 nm for emission). Antiviral activity (IC50) of the test compound is determined by comparing the flourescence obtained in absence of compound to that obtained in the presence of compound.
# [3] = test system: VZV strain Ellen; assay: VZV Antiviral (ELISA) Assay in human foreskin fibroblast cells; assay type: cell-based, varicella-zoster virus; conditions: for IC50 / inhibition at 10 µg/mL: Human alphaherpesvirus 3, Fibroblast; for IC50: read-out: IC50 (ug/ml) VZV; for inhibition at 10 µg/mL: read-out: % inhibition 10 ug/ml VZV, 10 ug/ml
# Protocol: For the generation of stock VZV to be used in the assay, VZV strain Ellen (ATCC #VR-1367) is used to infect human foreskin fibroblast (HFF) cells at low multiplicity (less than 0.1) and incubated overnight at 37° C. in 5% CO2. After the overnight incubation, the mixture of uninfected and VZV-infected HFF infected cells are then harvested and added to each well of 96-well plates (3.5×10^4 cells in 100 μl DMEM supplemented with 2% FBS) which contain test compound or the reference standard drug control (in 100 μl DMEM supplemented with 2% FBS per well). These cells are incubated for three days at 37° C. in 5% CO2, then fixed for ELISA assay. The primary antibody is murine anti-VZV glycoprotein II monoclonal antibody (Applied Biosystems, Inc. #13-145-100) and the secondary antibody is goat anti-mouse IgG linked to β-galactosidase. Thus the extent of viral replication is determined by assessing β-galactosidase activity by quantifying the generation of the 4-methyl umbelliferone fluorescent cleavage product after addition of the methyl umbelliferyl-β-D-galactoside (Sigma #M1633) substrate on a microfluorimeter (365 nm for excitation and 450 nm for emission). Antiviral activity (IC50) of the test compound is determined by comparing the flourescence obtained in absence of compound to that obtained in the presence of compound.
SMILES,IC50 [1] [µg/mL],IC50 ug/ml HCMV [1] [µg/mL],IC50 (ug/ml) VZV [3] [µg/mL],IC50 [3] [µg/mL],further results
O=C(Nc1ccc(NC(=S)NCc2ccc(F)c(F)c2)cc1)c1ccccc1F [Example 672],> 0.5,–,–,–,IC50 [2]: > 10 µg/mL
CC(NC(=S)Nc1ccc(NC(=O)c2cccc(Cl)c2)cc1)c1ccc(F)cc1 (centres unmarked) [Example 761],–,1.5,>10,–,–
O=C(Nc1ccc(NC(=S)Nc2cccc(CO)c2)cc1)c1ccccc1F [Example 476],–,>10,>10,–,% inhibition 10 ug/ml VZV [3]: 21%
"Nc1ccc(C(F)(F)F)cc1NC(=S)Nc1ccc(NC(=O)c2ccccc2F)cc1 [Example 999, N-{4-[3-(2-Amino-5-trifluoromethyl-phenyl)-thioureido]-phenyl}-2-fluoro-benzamide]",4,–,–,9.4,–
"O=C(Nc1ccc(NC(=S)Nc2cccc(OC(F)(F)F)c2)cc1)c1ccccc1F [Example 961, 2-Fluoro-N-{4-[3-(3-trifluoromethoxy-phenyl)-thioureido]-phenyl}-benzamide]",> 10,–,–,> 10,inhibition at 10 µg/mL [3]: 53%
Nc1cccc(NC(=S)Nc2ccc(NC(=O)c3ccccc3F)cc2)c1 [Example 434],–,5,>10,–,% inhibition 10 ug/ml VZV [3]: 0%
O=C(Nc1ccc(NC(=S)Nc2cc(N3CCCC3)cc(C(F)(F)F)c2)cc1)c1ccccc1F [Example 566],–,>0.5,2,–,–
O=C(Nc1ccc(NC(=S)NCCOc2cc(Cl)cc(Cl)c2)cc1)c1ccccc1F [Example 664],–,>0.5,–,–,–
COC(=O)c1cccc(C(=O)Nc2ccc(NC(=S)Nc3cc(Cl)c(OC)cc3OC)cc2)c1 [Example 208],–,>10,>10,–,% inhibition 10 ug/ml VZV [3]: 25%
O=C(Nc1ccc(NC(=S)NCCc2ccccc2)cc1)c1ccccc1F [Example 576],> 0.5,–,–,8,–
C[C@H](NC(=S)Nc1ccc(NC(=O)c2cc3ccccc3cn2)cc1)c1ccc(Br)cc1 [Example 1108],–,2.3,0.05,–,–
"Nc1ccc(F)cc1NC(=S)Nc1ccc(NC(=O)c2ccccc2F)cc1 [Example 1007, N-{4-[3-(2-Amino-5-fluoro-phenyl)-thioureido]-phenyl}-2-fluoro-benzamide]",> 10,–,–,> 10,–
C[C@H](NC(=S)Nc1ccc(NC(=O)c2nccc3ccccc23)cc1)c1ccc(Br)cc1 [Example 1107],–,8.1,0.05,–,–
CC(NC(=S)Nc1ccc(NC(=O)c2ccccc2F)cc1)c1ccc(Br)cc1 (centres unmarked) [Example 1102],–,1.7,0.2,–,–
CN(C)c1ccc(CNC(=S)Nc2ccc(NC(=O)c3ccccc3F)cc2)cc1C(F)(F)F [Example 610],–,>0.5,>10,–,–
COc1ccccc1C(=O)Nc1ccc(NC(=S)N[C@H](C)c2ccc(Br)cc2)cc1 [Example 1105],–,2.5,>7.5,–,–
CC(NC(=S)Nc1ccc(NC(=O)c2ccc(N(C)C)cc2)cc1)c1ccc(F)cc1 (centres unmarked) [Example 765],–,2.3,–,–,–

SMILES,IC50 [1] [µg/mL],IC50 ug/ml HCMV [1] [µg/mL],IC50 (ug/ml) VZV [3] [µg/mL],IC50 [3] [µg/mL],further results
CN1CCN(c2cc(NC(=S)Nc3ccc(NC(=O)c4ccccc4F)cc3)cc(C(F)(F)F)c2)CC1 [Example 569],–,>0.5,3,–,–
"COc1ccc(C(=O)Nc2ccc(NC(=S)Nc3cc(Br)c(OC)cc3OC)cc2)cc1 [Example 830, N-{4-[3-(5-Bromo-2,4-dimethoxy-phenyl)-thioureido]-phenyl}-4-methoxy-benzamide]",> 10,–,–,> 10,inhibition at 10 µg/mL [3]: 16%
"CC(NC(=S)Nc1ccc(NC(=O)c2ccccc2C(F)(F)F)cc1)c1ccc(F)cc1 (centres unmarked) [Example 992, N-(4-{3-[1-(4-Fluoro-phenyl)-ethyl]-thioureido}-phenyl)-2-trifluoromethyl-benzamide]",4,–,–,1.2,–
"O=C(Nc1ccc(NC(=S)Nc2cccc(S(=O)(=O)CCO)c2)cc1)c1ccccc1F [Example 969, 2-Fluoro-N-(4-{3-[3-(2-hydroxy-ethanesulfonyl)-phenyl]-thioureido}-phenyl)-benzamide]",> 10,–,–,> 10,inhibition at 10 µg/mL [3]: 19%
O=C(Nc1ccc(NC(=S)Nc2cc(N3CCOCC3)cc(C(F)(F)F)c2)cc1)c1ccccc1F [Example 568],–,>0.5,2.3,–,–
"CN(c1ccc(NC(=S)Nc2ccc(NC(=O)c3ccccc3F)cc2)cc1Cl)C1CCN(Cc2ccccc2)C1 (centres unmarked) [Example 857, N-[4-(3-{4-[(1-Benzyl-pyrrolidin-3-yl)-methyl-amino]-3-chloro-phenyl}-thioureido)-phenyl]-2-fluoro-benzamide]",–,–,–,7,IC50 [2]: 2 µg/mL; inhibition at 10 µg/mL [3]: 80%
O=C(Nc1ccc(NC(=S)NCCOc2cccc(Cl)c2)cc1)c1ccccc1F [Example 666],–,>0.5,–,–,–
"CC(NC(=S)Nc1ccc(NC(=O)c2nccc3ccccc23)cc1)c1ccc(Br)cc1 (centres unmarked) [Example 978, Isoquinoline-1-carboxylic acid (4-{3-[1-(4-bromo-phenyl)ethyl]-thioureido}-phenyl)-amide]",–,–,–,0.04,IC50 [2]: > 10 µg/mL
COc1ccccc1C(=O)Nc1ccc(NC(=S)N[C@@H](C)c2ccc(Br)cc2)cc1 [Example 1104],–,4.9,0.09,–,–
"O=C(Nc1ccc(NC(=S)Nc2ccc(Br)c(Cl)c2)cc1)c1ccccc1F [Example 915, N-{4-[3-(4-Bromo-3-chloro-phenyl)-thioureido]-phenyl}-2-fluoro-benzamide]",> 10,–,–,> 10,inhibition at 10 µg/mL [3]: 29%
"NC(=O)c1cccc(NC(=S)Nc2ccc(NC(=O)c3ccccc3F)cc2)c1 [Example 952, N-[4-[[[[3-(Aminocarbonyl)phenyl]amino]thioxomethyl]amino]phenyl]-2-fluoro-benzamide]",> 10,–,–,> 10,inhibition at 10 µg/mL [3]: 22%
COc1cc(OC)c(NC(=S)Nc2ccc(NC(=O)c3ccc4ccccc4c3)cc2)cc1Cl [Example 156],–,–,>10,–,IC50 (ug/ml) HSV [2]: 2 µg/mL; % inhibition 10 ug/ml VZV [3]: 17%
"CC(NC(=S)Nc1ccc(NC(=O)c2cc3ccccc3cn2)cc1)c1ccc(C#N)cc1 (centres unmarked) [Example 986, Isoquinoline-3-carboxylic acid (4-{3-[1-(4-cyano-phenyl)-ethyl]-thioureido}-phenyl)-amide]",–,–,–,0.05,IC50 [2]: > 10 µg/mL
C[C@H](NC(=S)Nc1ccc(NC(=O)c2ccc(F)cc2)cc1)c1ccc(Br)cc1 [Example 1103],–,3.4,0.47,–,–
"COc1cc(C)c(Cl)cc1NC(=S)Nc1ccc(NC(=O)c2ccccc2C)cc1 [Example 850, N-{4-[3-(5-Chloro-2-methoxy-4-methyl-phenyl)-thioureido]-phenyl}-2-methyl-benzamide]",–,–,–,5,IC50 [2]: 0.09 µg/mL; inhibition at 10 µg/mL [3]: 28%
CN(C)c1cc(NC(=S)Nc2ccc(NC(=O)c3ccccc3F)cc2)cc(C(F)(F)F)c1 [Example 567],> 0.5,–,–,2,–
